The term IC50 denotes the concentration that inhibits the measured activity by half. A low value points to greater potency in that assay.

Drawing on patent publication US8153663B2, “3-amino-indazole or 3-amino-4,5,6,7-tetrahydro-indazole derivatives” (Hoffmann-La Roche Inc., priority 2008, dated 2012), this text covers IC50 for 24 compounds.

For this test, the target named is T1, FXR ligand binding domain (GST-FXR LBD fusion protein, human FXR aa 193-473) (Homo sapiens, UniProt Q96RI1).
T1 construct: made in house; host or cells: E. coli BL21(pLysS)
T1 sequence (Q96RI1 193-472 isoform Q96RI1-2 limits assumed): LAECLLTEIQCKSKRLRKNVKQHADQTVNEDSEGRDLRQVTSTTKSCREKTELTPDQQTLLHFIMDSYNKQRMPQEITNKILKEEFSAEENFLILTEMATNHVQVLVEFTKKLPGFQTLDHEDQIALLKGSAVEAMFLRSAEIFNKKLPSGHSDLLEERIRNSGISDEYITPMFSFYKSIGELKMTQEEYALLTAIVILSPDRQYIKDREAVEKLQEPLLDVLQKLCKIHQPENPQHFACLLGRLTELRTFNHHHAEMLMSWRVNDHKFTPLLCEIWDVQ
Briefly: Radioligand binding assay (radioligand displacement, scintillation proximity). The note with it: 40 nM GST-FXR LBD on SPA beads, radioligand 2,N-dicyclohexyl-2-[2-(2,4 dimethoxy-phenyl)-benzoimidazol-1-yl]-acetamide, RT 30 minutes. The method, then: The following tests were carried out in order to determine the activity of the compounds of formula I. Background information on the binding assay can be found in: Nichols J S et al. “Development of a scintillation proximity assay for peroxisome proliferator-activated receptor gamma ligand binding domain”, (1998) Anal. Biochem. 257: 112-119.
Bacterial and mammalian expression vectors were constructed to produce glutathione-s-transferase (GST) and Gal4 DNA binding domain (GAL) proteins fused to the ligand binding domain (LBD) of human FXR (aa 193-473). To accomplish this, the portions of the sequences encoding the FXR LBD were amplified by polymerase chain reaction (PCR) from a full-length clone by PCR and then subcloned into the plasmid vectors. The final clone was verified by DNA sequence analysis.
The induction, expression, and subsequent purification of GST-LBD fusion protein was performed in E. coli strain BL21(pLysS) cells by standard methods (Current Protocols in Molecular Biology, Wiley Press, ed. Ausubel et al).
Radioligand Binding Assay
Binding of test substances to the FXR ligand binding domain was assessed in a radioligand displacement assay. The assay was performed in a buffer consisting of 50 mM Hepes, pH 7.4, 10 mM NaCl, 5 mM MgCl2. For each reaction well in a 96-well plate, 40 nM of GST-FXR LBD fusion protein was bound to 10 μg glutathione ytrium silicate SPA beads (Pharmacia Amersham) in a final volume of 50 μl by shaking. A radioligand (e.g. 40 nM) of 2,N-dicyclohexyl-2-[2-(2,4 dimethoxy-phenyl)-benzoimidazol-1-yl]-acetamide) was added, and the reaction incubated at RT for 30 minutes in the presence of test compounds followed by scintillation proximity counting. All binding assays were performed in 96-well plates and the amount of bound ligand was measured on a Packard TopCount using OptiPlates (Packard). Dose response curves were performed within a range of concentration from 6×10^−9 M to 2.5×10^−5 M.

The compound `O=C(NC1CCCCC1)N(c1cccc(Cl)c1)c1c2ccc(F)cc2nn1-c1ccc(Cl)cc1` [Example 44, 1-(3-Chloro-phenyl)-1-[2-(4-chloro-phenyl)-6-fluoro-2H-indazol-3-yl]-3-cyclohexyl-urea] gave a half-inhibitory concentration (IC50) of 100 nM.

As to `O=C(NC1CCCCC1)N(c1cccc(Cl)c1)c1c2cc(F)c(F)cc2nn1-c1cccc(Cl)c1` [Example 43, 1-(3-Chloro-phenyl)-1-[2-(3-chloro-phenyl)-5,6-difluoro-2H-indazol-3-yl]-3-cyclohexyl-urea], the IC50 worked out at 80 nM.

`CC(C)(C(=O)O)c1ccc(NC(=O)N(c2c3ccccc3nn2-c2ccc(Cl)cc2)C2CCCCC2)c(F)c1` [Example 32, 2-(4-{3-[2-(4-Chloro-phenyl)-2H-indazol-3-yl]-3-cyclohexyl-ureido}-3-fluoro-phenyl)-2-methyl-propionic acid] returned an IC50 of 3350 nM.

With `O=C(O)Cc1ccc(NC(=O)N(c2c3ccccc3nn2-c2ccc(Cl)cc2)C2CCCCC2)c(Cl)c1` [Example 21, (3-Chloro-4-{3-[2-(4-chloro-phenyl)-2H-indazol-3-yl]-3-cyclohexyl-ureido}-phenyl)-acetic acid], the IC50 turned out to be 720 nM.

For `O=C(O)c1ccc(NC(=O)N(c2c3cc(F)c(F)cc3nn2-c2ccc(Cl)cc2)C2CCCCC2)c(Cl)c1` [Example 16, 3-Chloro-4-{3-[2-(4-chloro-phenyl)-5,6-difluoro-2H-indazol-3-yl]-3-cyclohexyl-ureido}-benzoic acid], the IC50 came to 400 nM.

Regarding `O=C(NC1CCCCC1)N(c1cccc(Cl)c1)c1c2ccccc2nn1-c1ccc(Cl)cc1` [Example 19, 1-(3-Chloro-phenyl)-1-[2-(4-chloro-phenyl)-2H-indazol-3-yl]-3-cyclohexyl-urea], the IC50 is 20 nM.

Consider `CCCCN(C(=O)NC1CCCCC1)c1c2ccccc2nn1-c1ccc(Cl)cc1` [Example 4, 1-Butyl-1-[2-(4-chloro-phenyl)-2H-indazol-3-yl]-3-cyclohexyl-urea], for which the IC50 is 180 nM.

`O=C(NC1CCCCC1)N(c1c2ccccc2nn1-c1ccccc1)C1CCCCC1` [Example 1, 1,3-Dicyclohexyl-1-(2-phenyl-2H-indazol-3-yl)-urea] showed a 50% inhibitory concentration (IC50) of 40 nM.

On to `O=C(NC1CCCC1)N(c1c2ccccc2nn1-c1ccc(Cl)cc1)C1CCCC1` [Example 38, 1-[2-(4-Chloro-phenyl)-2H-indazol-3-yl]-1,3-dicyclopentyl-urea], for which the concentration for half-maximal inhibition (IC50) was determined as 240 nM.

In the case of `O=C(NC1CCCCC1)N(c1c2ccccc2nn1-c1ccc(Cl)cc1)C1CCOCC1` [Example 10, 1-[2-(4-Chloro-phenyl)-2H-indazol-3-yl]-3-cyclohexyl-1-(tetrahydro-pyran-4-yl)-urea], the IC50 amounted to 660 nM.

Take `CCOc1cccc(N(C(=O)NC2CCCCC2)c2c3ccccc3nn2-c2ccc(Cl)cc2)c1` [Example 25, 1-[2-(4-Chloro-phenyl)-2H-indazol-3-yl]-3-cyclohexyl-1-(3-ethoxy-phenyl)-urea]: the IC50 stood at 790 nM.

Regarding `O=C(NC1CCCCC1)N(c1cccc(Cl)c1)c1c2ccc(F)cc2nn1-c1cccc(Cl)c1` [Example 35, 1-(3-Chloro-phenyl)-1-[2-(3-chloro-phenyl)-6-fluoro-2H-indazol-3-yl]-3-cyclohexyl-urea], the IC50 is 20 nM.

With `O=C(N[C@H]1CC[C@H](O)CC1)N(c1cccc(Cl)c1)c1c2ccccc2nn1-c1ccc(Cl)cc1` [Example 41, trans-1-(3-Chloro-phenyl)-1-[2-(4-chloro-phenyl)-2H-indazol-3-yl]-3-(4-hydroxy-cyclohexyl)-urea], the concentration for half-maximal inhibition (IC50) turned out to be 300 nM.

For `O=C(NC1CCCCC1)N(c1ccccc1)c1c2ccccc2nn1-c1ccc(Cl)cc1` [Example 15, 1-[2-(4-Chloro-phenyl)-2H-indazol-3-yl]-3-cyclohexyl-1-phenyl-urea], the IC50 came to 460 nM.

`O=C(Nc1ccccc1F)N(c1c2ccccc2nn1-c1ccccc1)C1CCCCC1` [Example 3, 1-Cyclohexyl-3-(2-fluoro-phenyl)-1-(2-phenyl-2H-indazol-3-yl)-urea] returned a half-inhibitory concentration (IC50) of 830 nM.

Compound `O=C(NC1CCCCC1)N(c1c2ccccc2nn1-c1ccc(Cl)cc1)C1CCCCC1` [Example 11, 1-[2-(4-Chloro-phenyl)-2H-indazol-3-yl]-1,3-dicyclohexyl-urea] returned a half-maximal inhibitory concentration (IC50) of 20 nM.

For the compound `O=C(O)c1ccc(NC(=O)N(c2c3ccccc3nn2-c2ccc(Cl)cc2)C2CCC2)c(Cl)c1` [Example 31, 3-Chloro-4-{3-[2-(4-chloro-phenyl)-2H-indazol-3-yl]-3-cyclobutyl-ureido}-benzoic acid], the IC50 is 4310 nM.

`O=C(O)CCc1ccc(NC(=O)N(c2c3ccccc3nn2-c2ccc(Cl)cc2)C2CCCCC2)c(F)c1` [Example 26, 3-(4-{3-[2-(4-Chloro-phenyl)-2H-indazol-3-yl]-3-cyclohexyl-ureido}-3-fluoro-phenyl)-propionic acid] gave an IC50 of 340 nM.

In turn, `O=C(NC1CCCCC1)N(c1c2ccc(F)cc2nn1-c1ccc(Cl)cc1)C1CCCCC1` [Example 40, 1-[2-(4-Chloro-phenyl)-6-fluoro-2H-indazol-3-yl]-1,3-dicyclohexyl-urea] returned an IC50 of 20 nM.

`O=C(O)c1ccc(NC(=O)N(Cc2ccccc2)c2c3ccccc3nn2-c2ccc(Cl)cc2)c(Cl)c1` [Example 9, 4-{3-Benzyl-3-[2-(4-chloro-phenyl)-2H-indazol-3-yl]-ureido}-3-chloro-benzoic acid] displayed an IC50 of 1080 nM.

As for `O=C(OC1CCCCC1)N(c1c2ccccc2nn1-c1ccc(Cl)cc1)C1CCCCC1` [Example 37, [2-(4-Chloro-phenyl)-2H-indazol-3-yl]-cyclohexyl-carbamic acid cyclohexyl ester], the IC50 was 60 nM.

`CCCCN(C(=O)Nc1ccc(C(=O)O)cc1Cl)c1c2ccccc2nn1-c1ccc(Cl)cc1` [Example 12, 4-{3-Butyl-3-[2-(4-chloro-phenyl)-2H-indazol-3-yl]-ureido}-3-chloro-benzoic acid] yielded an IC50 of 790 nM.

`O=C(NC1CCCCC1)N(c1ccc(F)c(Cl)c1)c1c2ccccc2nn1-c1ccc(Cl)cc1` [Example 28, 1-(3-Chloro-4-fluoro-phenyl)-1-[2-(4-chloro-phenyl)-2H-indazol-3-yl]-3-cyclohexyl-urea] gave a half-inhibitory concentration (IC50) of 70 nM.

In turn, `COCCN(C(=O)NC1CCCCC1)c1c2ccccc2nn1-c1ccc(Cl)cc1` [Example 17, 1-[2-(4-Chloro-phenyl)-2H-indazol-3-yl]-3-cyclohexyl-1-(2-methoxy-ethyl)-urea] registered an IC50 of 2330 nM.
